Results from patent EP0323865A1, “Novel immunosuppressant agent” (Merck & Co., Inc., priority 1988, dated 1989).

Assays:
mouse T lymphocytes = assay: T-cell proliferation assay (ionomycin plus PMA induced T-cell stimulation, tritiated thymidine uptake); assay type: cell-based, C57Bl/6 mice; conditions: result in words
Procedure: The principle of this assay is to measure the proliferation of mouse T lymphocytes stimulated with the combination of ionomycin plus PMA. A positive sample in this assay will inhibit T-cell proliferation, as indicated by reduced tritiated thymidine uptake.
An equal volume of methanol was added to a 1 ml sample of each of the above broths producing a 1:2 whole broth equivalent (WBE). The samples were centrifuged at 3,000 rpm for 5 minutes and the resulting supernatants were used as starting materials for the T-cell proliferation assay. […]
Purified T lymphocytes were resuspended at 10⁶ cells/ml in complete culture medium composed of RPMI 1640 medium with 10% heat-inactivated fetal calf serum, […], 1 mM sodium pyruvate, 2 x 10⁻⁵ M 2-mercaptoethanol and 50 µg/ml gentamycin. […] The proliferation of T lymphocytes was assessed by measurement of tritiated thymidine incorporation. […] Radioactivity of filter discs corresponding to individual wells was measured by standard liquid scintillation counting methods (Betacounter). Mean counts per minute of replicate wells were calculated and the results expressed as percent inhibition of tritiated thymidine uptake (proliferation) as follows: [formula]

[1] = Physical characteristics: solubility; assay type: physicochemical; conditions: methanol
Description: White amorphous powder • 2. […] Molecular weight determined by mass spectroscopy of 791.4784, consistent with an empirical formula of C₄₃H₆₉NO₁₂

Row | Solubility [1] | SMILES | inhibition of T-cell activation (mouse T lymphocytes) | immunosuppressive activity (mouse T lymphocytes; for ascomycin no test is named)
1 | Solubility in methanol | CC[C@@H]1/C=C(\C)C[C@H](C)C[C@H](OC)[C@H]2O[C@@](O)(C(=O)C(=O)N3CCCC[C@H]3C(=O)O[C@H](/C(C)=C/[C@@H]3CC[C@@H](O)[C@H](OC)C3)[C@H](C)[C@@H](O)CC1=O)[C@H](C)C[C@@H]2OC [immunomycin] | positive inhibition of T-cell activation | –
2 | – | CC[C@@H]1/C=C(\C)C[C@H](C)C[C@H](OC)[C@H]2O[C@@](O)(C(=O)C(=O)N3CCCC[C@H]3C(=O)O[C@H](/C(C)=C/[C@@H]3CC[C@@H](O)[C@H](OC)C3)[C@H](C)[C@@H](O)CC1=O)[C@H](C)C[C@@H]2OC [ascomycin, reference compound] | – | exhibits immunosuppressive activity
